Earlier results on one compound are cited in patent US7122195B2, “Mutant mycobacteria for use in therapy” (priority 2000, dated 2006).

For this series, the system named is M. tuberculosis complex.

Each structure is given as a SMILES string.

For `Cc1ncc([N+](=O)[O-])n1CCO` [Metronidazole], the “Activity on anaerobic grown M. tuberculosis complex” value is “acts exclusively on anaerobic grown” and the “Effect on growth of aerobic grown cultures” value was “does not affect the growth”.
